Source: PubChem BioAssay (NCI)
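Interpolation was linear, between the two tested concentrations surrounding the appropriate level; five concentrations were tested over 48 hours in 96-well plates. Abbreviation: GI50, concentration required for 50% inhibition of growth. TGI: total growth inhibition.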

Experiments:
Test in all cases: growth of human tumour cells (NCI), 48 h
ACHN renal = system: ACHN renal
NCI-H23 lung = system: NCI-H23 lung
OVCAR-8 ovarian = system: OVCAR-8 ovarian
K-562 leukemia = system: K-562 leukemia
MOLT-4 leukemia = system: MOLT-4 leukemia
CAKI-1 renal = system: CAKI-1 renal
HS 578T breast = system: HS 578T breast
UACC-257 melanoma = system: UACC-257 melanoma
EKVX NSCLC = system: EKVX NSCLC
BT-549 breast = system: BT-549 breast

COc1ccc(N=c2ssc3c(=S)ssc23)cc1
TGI (ACHN renal): > 100 µM
TGI (NCI-H23 lung): > 100 µM
TGI (OVCAR-8 ovarian): 43.9 µM
TGI (K-562 leukemia): 22.5 µM
TGI (MOLT-4 leukemia): 26.9 µM
TGI (CAKI-1 renal): > 100 µM

C[C@]12CCC3[C@@H](CC[C@@H]4c5nonc5CC[C@]34C)C1CCC(=O)N2 (stereo partly drawn)
TGI (ACHN renal): > 100 µM
TGI (NCI-H23 lung): > 100 µM
TGI (OVCAR-8 ovarian): > 100 µM
GI50 (HS 578T breast): > 100 µM
TGI (HS 578T breast): > 100 µM
TGI (K-562 leukemia): > 100 µM
TGI (UACC-257 melanoma): > 100 µM
GI50 (MOLT-4 leukemia): > 59.7 µM
TGI (MOLT-4 leukemia): > 100 µM
TGI (EKVX NSCLC): > 100 µM
TGI (CAKI-1 renal): > 100 µM

COc1ccc2cc(-c3ccoc(=O)c3-c3cc(OC)c(OC)c(OC)c3)ccc2c1
GI50 (ACHN renal): 1.48 µM
TGI (ACHN renal): > 100 µM
GI50 (NCI-H23 lung): 0.141 µM
GI50 (OVCAR-8 ovarian): 0.334 µM
TGI (OVCAR-8 ovarian): > 100 µM
GI50 (HS 578T breast): 0.134 µM
TGI (HS 578T breast): > 100 µM
GI50 (K-562 leukemia): 0.0346 µM
TGI (K-562 leukemia): > 39.4 µM
GI50 (BT-549 breast): 0.232 µM
TGI (BT-549 breast): > 100 µM
GI50 (MOLT-4 leukemia): 0.161 µM
TGI (MOLT-4 leukemia): > 51.1 µM
GI50 (EKVX NSCLC): 0.566 µM
TGI (EKVX NSCLC): > 100 µM
GI50 (CAKI-1 renal): 0.0986 µM
TGI (CAKI-1 renal): > 100 µM

CCN1CCC(CCOC)(CN2c3ccccc3Sc3ccc(Cl)cc32)C1 (stereo not drawn)
GI50 (ACHN renal): 1.78 µM
TGI (ACHN renal): 3.44 µM
GI50 (NCI-H23 lung): 2.2 µM
TGI (NCI-H23 lung): 6.16 µM
GI50 (OVCAR-8 ovarian): 2.07 µM
TGI (OVCAR-8 ovarian): 4.14 µM
GI50 (HS 578T breast): 2.12 µM
TGI (HS 578T breast): 6.55 µM
GI50 (UACC-257 melanoma): 1.93 µM
TGI (UACC-257 melanoma): 3.87 µM
GI50 (BT-549 breast): 1.88 µM
TGI (BT-549 breast): 3.68 µM
GI50 (EKVX NSCLC): 2.04 µM
TGI (EKVX NSCLC): 5.91 µM
GI50 (CAKI-1 renal): 1.64 µM
TGI (CAKI-1 renal): 3.11 µM

COc1cc(C(=O)C/C(CCC(=O)Nc2ccccc2[N+](=O)[O-])=N\NC(=O)CC#N)ccc1O
TGI (ACHN renal): > 100 µM
TGI (NCI-H23 lung): > 100 µM
TGI (OVCAR-8 ovarian): > 100 µM
TGI (K-562 leukemia): > 100 µM
TGI (UACC-257 melanoma): > 100 µM
TGI (MOLT-4 leukemia): > 100 µM
TGI (EKVX NSCLC): > 100 µM
TGI (CAKI-1 renal): > 100 µM

CCCCCCc1cc(C(=O)Nc2cccc(C(F)(F)F)c2)nc(N)n1
TGI (ACHN renal): > 100 µM
TGI (NCI-H23 lung): > 100 µM
TGI (K-562 leukemia): > 100 µM
TGI (UACC-257 melanoma): > 100 µM
TGI (MOLT-4 leukemia): > 100 µM
TGI (EKVX NSCLC): > 100 µM
TGI (CAKI-1 renal): > 100 µM

CCOC(=O)c1oc2ccc(OC)c3c2c1CCC3
TGI (ACHN renal): > 100 µM
TGI (NCI-H23 lung): > 100 µM
TGI (OVCAR-8 ovarian): > 100 µM
TGI (K-562 leukemia): > 100 µM
TGI (UACC-257 melanoma): 40 µM
TGI (MOLT-4 leukemia): > 100 µM
TGI (EKVX NSCLC): > 100 µM

CN(C)c1ccc2c(c1)Sc1cc(N(C)C)ccc1N2C(=O)c1ccccc1
GI50 (ACHN renal): 32.4 µM
TGI (ACHN renal): > 100 µM
GI50 (NCI-H23 lung): 27.7 µM
TGI (NCI-H23 lung): > 100 µM
GI50 (OVCAR-8 ovarian): 50.3 µM
TGI (OVCAR-8 ovarian): > 100 µM
GI50 (HS 578T breast): 10.8 µM
TGI (HS 578T breast): 57.4 µM
GI50 (K-562 leukemia): 2.69 µM
TGI (K-562 leukemia): > 100 µM
GI50 (UACC-257 melanoma): > 100 µM
TGI (UACC-257 melanoma): > 100 µM
GI50 (MOLT-4 leukemia): 38.1 µM
TGI (MOLT-4 leukemia): > 100 µM
GI50 (EKVX NSCLC): 13.2 µM
TGI (EKVX NSCLC): > 100 µM
GI50 (CAKI-1 renal): 14.7 µM
TGI (CAKI-1 renal): > 100 µM

CC(=O)OC1CCn2nnc(CO[Si](C)(C)C(C)(C)C)c21 (stereo not drawn)
TGI (ACHN renal): > 100 µM
TGI (NCI-H23 lung): > 100 µM
TGI (OVCAR-8 ovarian): > 100 µM
TGI (K-562 leukemia): > 100 µM
TGI (UACC-257 melanoma): > 100 µM
TGI (MOLT-4 leukemia): > 100 µM
TGI (EKVX NSCLC): > 100 µM
TGI (CAKI-1 renal): > 100 µM

C=CC(=O)N(C)[C@H]1C[C@H]2OC(C)(C1OC)n1c3ccccc3c3c4c(c5c6ccccc6n2c5c31)C(=O)NC4 (stereo partly drawn)
GI50 (ACHN renal): 0.139 µM
TGI (ACHN renal): > 50 µM
GI50 (NCI-H23 lung): 0.158 µM
TGI (NCI-H23 lung): 2.08 µM
GI50 (OVCAR-8 ovarian): 0.217 µM
GI50 (HS 578T breast): 0.0887 µM
TGI (HS 578T breast): 0.6 µM
GI50 (K-562 leukemia): 0.233 µM
TGI (K-562 leukemia): > 50 µM
GI50 (UACC-257 melanoma): 0.216 µM
TGI (UACC-257 melanoma): 1.39 µM
GI50 (BT-549 breast): 0.0963 µM
TGI (BT-549 breast): 0.553 µM
GI50 (MOLT-4 leukemia): 0.0773 µM
TGI (MOLT-4 leukemia): 0.899 µM
GI50 (EKVX NSCLC): 0.085 µM
TGI (EKVX NSCLC): > 50 µM

O=[N+]([O-])c1cccc(-c2nc3sccn3c2-c2ccnc(NCCCNS(=O)(=O)c3cccc(F)c3)n2)c1
GI50 (ACHN renal): 2.19 µM
TGI (ACHN renal): 11.2 µM
GI50 (NCI-H23 lung): 1.98 µM
TGI (NCI-H23 lung): 7.34 µM
GI50 (OVCAR-8 ovarian): 1.89 µM
TGI (OVCAR-8 ovarian): 17.7 µM
GI50 (HS 578T breast): 4.73 µM
TGI (HS 578T breast): 47.3 µM
GI50 (K-562 leukemia): 1.73 µM
TGI (K-562 leukemia): > 100 µM
GI50 (UACC-257 melanoma): 2.71 µM
TGI (UACC-257 melanoma): 8.27 µM
GI50 (BT-549 breast): 2.18 µM
TGI (BT-549 breast): 11.9 µM
GI50 (EKVX NSCLC): 2.77 µM
TGI (EKVX NSCLC): 52.7 µM
GI50 (CAKI-1 renal): 2.33 µM
TGI (CAKI-1 renal): 14.1 µM

Cc1ccc(-c2cc(-c3ccc(C)cc3)nc(NCCNc3ccnc4cc(Cl)ccc34)n2)cc1
GI50 (ACHN renal): 1.68 µM
TGI (ACHN renal): 3.13 µM
GI50 (NCI-H23 lung): 1.91 µM
TGI (NCI-H23 lung): 3.85 µM
GI50 (OVCAR-8 ovarian): 1.88 µM
TGI (OVCAR-8 ovarian): 3.88 µM
GI50 (K-562 leukemia): 1.82 µM
TGI (K-562 leukemia): 4.5 µM
GI50 (UACC-257 melanoma): 1.98 µM
TGI (UACC-257 melanoma): 4.07 µM
GI50 (EKVX NSCLC): 1.69 µM
TGI (EKVX NSCLC): 3.52 µM
GI50 (CAKI-1 renal): 1.43 µM
TGI (CAKI-1 renal): 2.82 µM

Brc1cccc(C2SCc3nc4ccccc4n32)c1 (stereo not drawn)
TGI (ACHN renal): > 100 µM
TGI (NCI-H23 lung): 44.7 µM
TGI (OVCAR-8 ovarian): 60.7 µM
TGI (K-562 leukemia): > 100 µM
TGI (MOLT-4 leukemia): > 100 µM
TGI (EKVX NSCLC): 55.2 µM
TGI (CAKI-1 renal): > 100 µM

COc1cc2nc(N3CCCC3)nc(NCC3CCCCC3)c2cc1OC
GI50 (ACHN renal): 1.44 µM
TGI (ACHN renal): 2.75 µM
GI50 (NCI-H23 lung): 1.57 µM
TGI (NCI-H23 lung): 3.07 µM
GI50 (OVCAR-8 ovarian): 1.59 µM
TGI (OVCAR-8 ovarian): 3.52 µM
GI50 (HS 578T breast): 1.79 µM
TGI (HS 578T breast): 3.71 µM
GI50 (K-562 leukemia): 0.334 µM
TGI (K-562 leukemia): 2.1 µM
GI50 (UACC-257 melanoma): 0.364 µM
TGI (UACC-257 melanoma): 1.36 µM
GI50 (BT-549 breast): 1.41 µM
TGI (BT-549 breast): 2.78 µM
GI50 (EKVX NSCLC): 1.45 µM
TGI (EKVX NSCLC): 2.91 µM
GI50 (CAKI-1 renal): 1.34 µM
TGI (CAKI-1 renal): 2.64 µM

C=C1COC(/C=C(\C)CC/C=C(\C)CCl)C1 (stereo not drawn)
TGI (ACHN renal): > 100 µM
TGI (NCI-H23 lung): > 100 µM
TGI (OVCAR-8 ovarian): > 100 µM
TGI (K-562 leukemia): > 100 µM
TGI (MOLT-4 leukemia): > 100 µM
TGI (EKVX NSCLC): > 100 µM

N#CC(C(=O)CCC(=O)Nc1cccc(Cl)c1)c1ccccc1 (stereo not drawn)
TGI (ACHN renal): > 100 µM
TGI (NCI-H23 lung): > 100 µM
TGI (OVCAR-8 ovarian): > 100 µM
TGI (K-562 leukemia): > 100 µM
TGI (UACC-257 melanoma): > 100 µM
TGI (MOLT-4 leukemia): > 100 µM
TGI (EKVX NSCLC): > 100 µM

CC1=C(CCC(C)N(C)Cc2ccc(OCCCN3CCCC3)cc2)C(C)(C)CCC1 (stereo not drawn)
GI50 (ACHN renal): 3.29 µM
TGI (ACHN renal): 11.3 µM
GI50 (NCI-H23 lung): 10.4 µM
TGI (NCI-H23 lung): 24.9 µM
GI50 (OVCAR-8 ovarian): 5.75 µM
TGI (OVCAR-8 ovarian): 19.9 µM
GI50 (HS 578T breast): 2.53 µM
TGI (HS 578T breast): 9.73 µM
GI50 (K-562 leukemia): 1.67 µM
TGI (K-562 leukemia): 4.06 µM
GI50 (UACC-257 melanoma): 2.25 µM
TGI (UACC-257 melanoma): 4.12 µM
GI50 (BT-549 breast): 12.3 µM
TGI (BT-549 breast): 27.1 µM
GI50 (EKVX NSCLC): 9.07 µM
TGI (EKVX NSCLC): 23.2 µM
GI50 (CAKI-1 renal): 11.3 µM
TGI (CAKI-1 renal): 24.3 µM
